Reference: patent US20260191861A1, “INFLAMMASOME AND VEGF INHIBITION FOR RETINAL VASCULAR DISEASES” (University of Virginia Patent Foundation, priority 2022, published 2026)

Columns and labels:
[1] = system: photoreceptors (TUNEL+ cells in the ONL); test: RRD model: TUNEL assay of the retinal outer nuclear layer; type: in vivo, mouse; conditions: day 3 RRD, equimolar IP doses twice daily (K-9H 60 mg/kg, 3TC 50 mg/kg)
Experimental: (§1) All experiments involving animals were approved by the University of Virginia Institutional Animal Care and Use Committee (IACUC) and adhered to the Association for Research in Vision and Ophthalmology (ARVO) Statement for the Use of Animals in Ophthalmic and Vision Research. Animal subjects were male and female mice aged 6 to 10 weeks. Wild type C57BL/6J mice were obtained from the Jackson Laboratory (Bar Harbor, ME, USA). To anesthetize mice for study procedures, ketamine hydrochloride (100 mg/kg; Ft. Dodge Animal Health, Overland Park, KS, USA) and xylazine (10 mg/kg; Phoenix Scientific, St. Joseph, MO, USA) were delivered by intraperitoneal (IP) injection. Pupils were dilated with topical 1% tropicamide and 2.5% phenylephrine (Alcon Laboratories, Ft. Worth, TX, USA).
(§2) RRD model was established by subretinal injection (SRI) of 3 μl 1% carboxymethyl cellulose (CMC; Refresh Liquigel, Allergan, Irvine, CA, USA).
(§3) NRTIs and K-9 were delivered via intraperitoneal (IP) injection in equimolar amounts. […] Kamuvudine K-9 (3-methyl-3TC, MW=273 g/mol) was administered either at a low dose (K-9L; 90 mg/kg daily) or a high dose (K-9H; 60 mg/kg twice daily, equimolar to NRTI doses). IP injection of phosphate buffered saline (PBS) was used as control.
Retinal cross cryosections at a thickness of 10 μm were stained with TUNEL (TdT-mediated dUTP nick-end labeling) using the In Situ Cell Death Detection Kit (Roche Diagnostics, Indianapolis, IN, USA) according to the manufacturer's′ instructions. The sections were wet-mounted with ProLong anti-fade reagent with DAPI (P36935, ThermoFisher Scientific, Waltham, MA, USA) and visualized using an A1R laser confocal microscope (Nikon, Tokyo, Japan). Fourteen representative sections, including the optic nerve, were used per treatment group. To calculate the number of TUNEL+ cells in the outer nuclear layer (ONL), the retina analysis toolkit of ImageJ (2.1.0; NIH, Bethesda, MD, USA) was used.

[2] = system: participants with diabetic macular edema; test: Systemic and ocular adverse events in the lamivudine versus placebo trial; type: in vivo, human
Description: If the participant developed high-risk proliferative diabetic retinopathy or had to undergo any ocular surgery during the study period, they would be excluded. Patients were monitored for adverse events by the assessing physician, and new laboratory tests could be performed at the physician's discretion.
Secondary outcomes included the change in central subfield thickness, the percentage of eyes with an improvement in VALS of 15 or more, the correlation between improvements in visual acuity and central subfield thickness, and systemic and ocular adverse events. Change in central subfield thickness was estimated using mixed-effects models, similar to the VALS analysis. To analyze a VALS improvement of at least 15 letters, logistic regression using generalized estimating equations (GEEs) was specified with an exchangeable correlation matrix. Model-based contrasts were estimated to make pairwise treatment comparisons.

[3] = system: caspase-1; test: Rhegmatogenous retinal detachment (RRD) model: retinal caspase-1 cleavage by immunoblot; type: in vivo, mouse; conditions: day 3 RRD, equimolar IP doses twice daily (K-9H 60 mg/kg, 3TC 50 mg/kg)
Experimental: as §1, §2, §3
Retinal tissue was extracted and lysed by sonication in radioimmunoprecipitation assay (RIPA) buffer (MilliporeSigma, Darmstadt, Germany). The Pierce BCA Protein Assay Kit (ThermoFisher Scientific, Waltham, MA, USA) was used to determine protein concentrations of interest. Samples were prepared that contained equal concentrations of total protein (10-100 μg). Protein samples were resolved by SDS-PAGE and transferred onto Immobilon-FL PVDF membranes (Millipore, Billerica, MA, USA). Membranes were blocked in Odyssey Blocking Buffer (PBS) for 1 hour at room temperature, and then incubated overnight with primary antibody at 4° C. Across study experiments, the following antibodies were used: anti-mouse caspase-1 (1:1000; AG-20B-0042; AdipoGen Life Sciences, San Diego, CA, USA), and anti-mouse GAPDH (1:1000; 2118; Cell Signaling, Danvers, MA, USA). […]

[4] = ocular adverse event, of 16 eyes
[5] = systemic adverse event, of 10 subjects

With `Nc1ccn([C@@H]2CS[C@H](CO)O2)c(=O)n1` [Lamivudine] the “degree of photoreceptor protection” value [1] was 38%+10%, the “Endophthalmitis - (%)” value [2, 4] was “(0%)” and the “Endophthalmitis - N” value [2, 4] was 0. For the same compound, the “Increase in intraocular pressure ≥10 mm Hg from baseline - (%)” value [2, 4] was “(0%)”, the “Increase in intraocular pressure ≥10 mm Hg from baseline - N” value [2, 4] was 0 and the “Intraocular inflammation* - (%)” value [2, 4] was “(0%)”. The “Intraocular inflammation* - N” value [2, 4] was 0, the “Retinal detachment - (%)” value [2, 4] was “(0%)” and the “Retinal detachment - N” value [2, 4] was 0. The “Subconjunctival hemorrhage - (%)” value [2, 4] was “(18.8%)”, the “Subconjunctival hemorrhage - N” value [2, 4] was 3 and the “Traumatic cataract - (%)” value [2, 4] was “(0%)”. For the same compound, the “Traumatic cataract - N” value [2, 4] was 0, the “Vitreous hemorrhage - (%)” value [2, 4] was “(0%)” and the “Vitreous hemorrhage - N” value [2, 4] was 0. The “Abdominal pain - (%)” value [2, 5] was “(0%)”, the “Abdominal pain - N” value [2, 5] was 0 and the “Alopecia - (%)” value [2, 5] was “(0%)”. For the same compound, the “Alopecia - N” value [2, 5] was 0, the “Arthralgia - (%)” value [2, 5] was “(0%)” and the “Arthralgia - N” value [2, 5] was 0. For the same compound, the “Diarrhea - (%)” value [2, 5] was “(10%)”, the “Diarrhea - N” value [2, 5] was 1 and the “Disphoresis - (%)” value [2, 5] was “(10%)”. For the same compound, the “Disphoresis - N” value [2, 5] was 1, the “Fatigue - (%)” value [2, 5] was “(10%)” and the “Fatigue - N” value [2, 5] was 1. The “Headache - (%)” value [2, 5] was “(20%)”, the “Headache - N” value [2, 5] was 2 and the “Myalgia - (%)” value [2, 5] was “(0%)”. The “Myalgia - N” value [2, 5] was 0, the “Nausea or vomiting - (%)” value [2, 5] was “(20%)” and the “Nausea or vomiting - N” value [2, 5] was 2. The “Pruritus - (%)” value [2, 5] was “(20%)”, the “Pruritus - N” value [2, 5] was 2 and the “Skin rash - (%)” value [2, 5] was “(0%)”. The “Skin rash - N” value [2, 5] was 0, the ocular adverse events ([2]; week 4) was “no ocular adverse events” and the “subconjunctival hemorrhage after intravitreous injection” value ([2]; week 8) was “three”. The “degree of suppression of caspase-1 activation” value [3] was 52%+8%.
